Assay results taken from patent publication US8343475B2, “Small cationic antimicrobial peptides” (priority 2006, dated 2013).
Converted amounts (≈) assume the structure as drawn. Residues, ends and D or L forms follow the SMILES beside them.

Key:
Assay type in all cases: cell-based
[1] = test system: Pseudomonas aeruginosa PAO1 strain H103; conditions: PAO1
Experimental: The biological activity of the peptides can be determined by standard methods known to those of skill in the art, such as “minimal inhibitory concentration (MIC)” assay described in the present examples, whereby the lowest concentration at which no change in OD is observed for a given period of time is recorded as MIC.
(§1) Minimal inhibitory concentration (MIC) determination. The MIC of the peptides were measured using a modified broth microdilution method in Mueller Hinton (MH) medium (Wu M, Hancock R E W. 1999. Interaction of the cyclic antimicrobial cationic peptide bactenecin with the outer and cytoplasmic membrane. J Biol Chem 274, 29-35). Briefly, the peptides were dissolved and stored in glass vials. The assay was performed in sterile 96-well polypropylene microtitre plates were used. Serial dilutions of the peptides to be assayed were performed in 0.01% acetic acid (Fisher) containing 0.2% bovine serum albumin (Boehringer Mannheim GmbH) at 10× the desired final concentration. Ten microlitres of the 10× peptides were added to each well of a 96-well polypropylene plate containing 90 μl of MH media per well. Bacteria were added to the plate from an overnight culture at 2-7×10^5 colony forming units/ml and incubated over night at 37° C. The MIC was taken as the concentration at which no growth was observed.
(§2) Strains. For the killing assay a mini-Tn5-lux mutant in Pseudomonas aeruginosa H103 was used. The strain is called H1001 and contains a fliC::luxCDABE transcriptional fusion resulting in constitutive expression of luciferase. The bacterial strains used for the antimicrobial activity assays included Escherichia coli UB1005 (F-, nalA37, metB1), a wild-type Salmonella enterica ssp. typhimurium (S. typhimurium), wild-type Pseudomonas aeruginosa PAO1 strain H103, Enterococcus faecalis ATCC29212, Staphylococcus aureus ATCC25923, and a clinical isolate of Staphylococcus epidermidis obtained from Dr. D. Speert (Department of Medicine, University of British Columbia). Antifungal activity was tested using a lab isolate of Candida albicans obtained from Dr. B. Dill (Department of Microbiology and Immunology, University of British Columbia).

[2] = test system: Staphylococcus aureus ATCC25923; conditions: ATCC25923
Experimental: as §1, §2

[3] = test system: Escherichia coli UB1005; conditions: UB1005
Experimental: as §1, §2

[4] = test system: wild-type Salmonella enterica ssp. typhimurium
Experimental: as §1, §2

[5] = test system: Enterococcus faecalis ATCC29212; conditions: ATCC29212
Experimental: as §1, §2

[6] = test system: lab isolate of Candida albicans; conditions: lab isolate of
Experimental: as §1, §2

[7] = test system: clinical isolate of Staphylococcus epidermidis; conditions: clinical isolate of
Experimental: as §1, §2

Compound | MIC P. aerug [1] | MIC S. aureus [2] | MIC E. coli [3] | MIC S. typhi [4] | MIC E. faecalis [5] | MIC C. albicans [6] | MIC S. epi. [7]
CC[C@H](C)[C@H](NC(=O)[C@H](CCCNC(=N)N)NC(=O)[C@H](CC(C)C)NC(=O)[C@H](CCCNC(=N)N)NC(=O)[C@@H](N)C(C)C)C(=O)N[C@@H](CCCNC(=N)N)C(=O)N[C@H](C(=O)N[C@@H](C)C(=O)N[C@H](C(=O)N[C@H](C(=O)N[C@@H](CCCNC(=N)N)C(=O)N[C@@H](CCCCN)C(N)=O)[C@@H](C)CC)C(C)C)C(C)C [HH8, VRLRIRVAVIRK] (H-VRLRIRVAVIRK-NH2) | 6 µg/mL (≈ 4.06 µM) | 6 µg/mL (≈ 4.06 µM) | 3 µg/mL (≈ 2.03 µM) | 6 µg/mL (≈ 4.06 µM) | 12 µg/mL (≈ 8.12 µM) | 3 µg/mL (≈ 2.03 µM) | 1.6 µg/mL (≈ 1.08 µM)
CC[C@H](C)[C@H](NC(=O)[C@H](CCCNC(=N)N)NC(=O)[C@H](CC(C)C)NC(=O)[C@H](CCC(N)=O)NC(=O)[C@@H](N)C(C)C)C(=O)N[C@@H](CCCNC(=N)N)C(=O)N[C@H](C(=O)N[C@@H](CCCNC(=N)N)C(=O)N[C@H](C(=O)N[C@H](C(=O)N[C@@H](CCCNC(=N)N)C(=O)N[C@@H](CCCCN)C(N)=O)[C@@H](C)CC)C(C)C)C(C)C [HH9, VQLRIRVRVIRK] (H-VQLRIRVRVIRK-NH2; N-terminus assumed) | 6 µg/mL (≈ 3.91 µM) | 12 µg/mL (≈ 7.82 µM) | 3 µg/mL (≈ 1.95 µM) | 6 µg/mL (≈ 3.91 µM) | 12 µg/mL (≈ 7.82 µM) | 6 µg/mL (≈ 3.91 µM) | 1.6 µg/mL (≈ 1.04 µM)
CC[C@H](C)[C@H](NC(=O)[C@H](CCCNC(=N)N)NC(=O)[C@H](Cc1ccccc1)NC(=O)[C@H](CCCNC(=N)N)NC(=O)[C@@H](N)CCCCN)C(=O)N[C@@H](CCCNC(=N)N)C(=O)N[C@H](C(=O)N[C@@H](C)C(=O)N[C@H](C(=O)N[C@@H](CCCNC(=N)N)C(=O)N[C@@H](CCCNC(=N)N)C(=O)N[C@@H](C)C(N)=O)C(C)C)C(C)C [HH10, KRFRIRVAVRRA] (H-KRFRIRVAVRRA-NH2; N-terminus assumed) | 25 µg/mL (≈ 16.4 µM) | 25 µg/mL (≈ 16.4 µM) | 6 µg/mL (≈ 3.93 µM) | >50 µg/mL | >50 µg/mL | 12 µg/mL (≈ 7.86 µM) | 3.1 µg/mL (≈ 2.03 µM)
CC[C@H](C)[C@H](NC(=O)[C@H](CCCNC(=N)N)NC(=O)[C@H](CC(C)C)NC(=O)[C@H](CCCNC(=N)N)NC(=O)[C@@H](N)C(C)C)C(=O)N[C@@H](CCCNC(=N)N)C(=O)N[C@H](C(=O)N[C@@H](CCCNC(=N)N)C(=O)N[C@H](C(=O)N[C@H](C(=O)N[C@@H](CCCNC(=N)N)C(=O)N[C@@H](CCCCN)C(N)=O)[C@@H](C)CC)C(C)C)C(C)C [HH11, VRLRIRVRVIRK] (H-VRLRIRVRVIRK-NH2; N-terminus assumed) | 3 µg/mL (≈ 1.92 µM) | 6 µg/mL (≈ 3.84 µM) | 1.6 µg/mL (≈ 1.02 µM) | 6 µg/mL (≈ 3.84 µM) | 12 µg/mL (≈ 7.68 µM) | 3 µg/mL (≈ 1.92 µM) | 0.8 µg/mL (≈ 0.512 µM)
CC[C@H](C)[C@H](NC(=O)[C@H](CCCNC(=N)N)NC(=O)[C@H](Cc1c[nH]c2ccccc12)NC(=O)[C@H](CCC(N)=O)NC(=O)[C@@H](N)Cc1c[nH]cn1)C(=O)N[C@@H](CCCNC(=N)N)C(=O)N[C@H](C(=O)N[C@@H](C)C(=O)N[C@H](C(=O)N[C@@H](CCCNC(=N)N)C(=O)N[C@@H](CCCNC(=N)N)C(=O)N[C@@H](Cc1c[nH]cn1)C(N)=O)C(C)C)C(C)C [HH14, HQWRIRVAVRRH] (H-HQWRIRVAVRRH-NH2) | 50 µg/mL (≈ 31 µM) | 25 µg/mL (≈ 15.5 µM) | 6 µg/mL (≈ 3.72 µM) | 25 µg/mL (≈ 15.5 µM) | >50 µg/mL | 25 µg/mL (≈ 15.5 µM) | 12 µg/mL (≈ 7.44 µM)
